Measured values: patent US20050037436A1, “Test systems and the use thereof for identifying and characterizing compounds” (priority 2000, published 2005)

Assays:
HC110-R [1] = assay type: binding, Haemonchus contortus
Excerpt: Since denaturation of proteins is necessary for carrying out SDS-PAGE, there may be destruction of conformation-dependent epitopes. Antibodies or proteins which specifically recognize such epitopes may therefore no longer bind. […] BAY44-4400 differs from PF1022A by 2 morpholine residues which are covalently bonded to the phenyl rings of the two D-phenyllactyl radicals of PF1022A. […] For this purpose, total protein from untransfected HEK-293 cells and HEK-293 cells which transiently express HC110-R-Myc/His, and from the 54 kDa N terminus and the 21 kDa C terminus of HC110-R which were expressed in E. coli, were fractionated by SDS-PAGE, renatured and blotted in the usual way. […] In addition, a partially renatured SDS polyacrylamide gel with the protein fractions of untransfected HEK-293 cells, HEK-293 cells transiently transfected with HC110-R-Myc/His, and the N terminus of HC110-R expressed in E. coli and total protein from H. contortus was blotted, incubated with PF1022A-biotin and detected using streptavidin HRP.

[2] = system: untransfected HEK-293 cells; experiment: Ca2+ imaging of untransfected or GFP-transfected HEK-293 cells (control); assay type: cell-based, human
Experimental: The intracellular free Ca^2+ concentration [Ca^2+]i was measured in COS-7 and HEK293 cells transiently transfected with the HC110-R-EGFP or β2-AR-EGFP construct using the calcium imaging method (see also FIG. 11). In each case 2×10^5 COS-7 and HEK293 cells were applied to a 42 mm cover glass coated with 1% gelatine in 55 mm tissue culture dishes with 5 ml of DMEM medium (with 10% FCS and pen/strep). The transfection took place with the aid of the non-liposomal transfection reagent FuGENE 6 (Roche Molecular Biochemicals, Mannheim). […] Constructs of the HC110-R full-length clone with a GFP tag fused in the correct reading frame, and the complete cDNA of the β2-adrenergic receptor which had likewise been provided with a GFP tag at the 3′ end, were transfected. […]
Loading of the cells with 1 μM Fura-2/acetoxymethyl ester (Fura-2/AM) (Sigma, Deisenhofen) took place 48 h after the transfection in an Na^+-HBS solution (150 mM NaCl; 5.4 mM KCl; 1.8 mM CaCl2; 0.8 mM MgSO4 7H2O; 20 mM glucose; 20 mM Hepes in H2O, pH 7.3) at 37° C., 5% CO2 and 95% humidity for 30 min. After the incubation, the cells loaded with Fura-2/AM were examined under an inverted microscope (Zeiss, Axiovert, Germany) and, in parallel with this, in a digital imaging fluorescence microscope (PTI) and differentiated into transfected and untransfected cells at a wavelength of 440 and 490 nm respectively. […]

[3] = biological target: T1, human muscarinic M1 acetylcholine receptor (Homo sapiens, UniProt P11229); assay type: cell-based; details: 400 ng/ml BAY44-4400
T1 construct: The full-length cDNA of a human muscarinic receptor 1 (huM1Rez); expressed in transfected cells; host or cells: HEK-293, transient (pEGFP-N3)
T1 sequence (P11229 1-460): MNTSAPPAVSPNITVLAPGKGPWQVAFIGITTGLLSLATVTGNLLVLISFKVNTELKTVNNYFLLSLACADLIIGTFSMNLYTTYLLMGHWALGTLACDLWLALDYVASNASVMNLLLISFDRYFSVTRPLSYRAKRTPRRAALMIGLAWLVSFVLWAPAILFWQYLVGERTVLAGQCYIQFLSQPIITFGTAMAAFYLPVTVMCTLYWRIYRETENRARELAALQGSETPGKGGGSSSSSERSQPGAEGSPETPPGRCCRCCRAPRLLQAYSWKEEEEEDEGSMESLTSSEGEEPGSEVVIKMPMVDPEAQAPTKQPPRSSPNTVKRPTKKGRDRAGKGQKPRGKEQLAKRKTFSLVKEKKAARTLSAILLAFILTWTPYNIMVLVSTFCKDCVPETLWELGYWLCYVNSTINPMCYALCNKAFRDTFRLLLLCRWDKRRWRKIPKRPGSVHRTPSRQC

HC110-R [4] = experiment: Ca2+ imaging of HEK-293 cells expressing HC110-R-Myc/His; assay type: cell-based, Haemonchus contortus; details: stably expressing cells; 400 ng/ml added 6 min before 75 nM α-LTX

## CC(C)C[C@H]1C(=O)O[C@H](Cc2ccc(N3CCOCC3)cc2)C(=O)N(C)[C@@H](CC(C)C)C(=O)O[C@H](C)C(=O)N(C)[C@@H](CC(C)C)C(=O)O[C@H](Cc2ccc(N3CCOCC3)cc2)C(=O)N(C)[C@@H](CC(C)C)C(=O)O[C@H](C)C(=O)N1C [BAY44-4400, cyclo(-D-Lac-L-MeLeu-D-p-morpholinyl-PhLac-L-MeLeu-)]
HC110-R [1]; denatured proteins, no renaturation
  HC110-R-specific binding in a Western blot: not identifiable
HC110-R [1]; renatured with urea, no band in untransfected cells
  band in HEK-293 cells expressing HC110-R-Myc/His: distinct band 116 kDa in size
HC110-R [1]; renatured, fragment expressed in E. coli
  binding to 54 kDa N terminus of HC110-R: bound to the 54 kDa N terminus of HC110-R
[2]
  changes caused by substance: causes no changes in untransfected cells
[3]
  carbachol-induced increase in [Ca2+]i in presence of BAY44-4400: 89 ± 5.5 nM
HC110-R [4]
  α-LTX-induced increase in [Ca2+]i in presence of substance: complete inhibition
